Laboratory results as given in PubChem BioAssay AID256 (DTP/NCI, 2004).
Several values for one entry are separate records, joined by “and”; a condition that tells them apart may be missing. Equal values may be shown once. Toxic doses and inconclusive results are not listed.

Tested on: CD2F1 mice, L1210 leukemia ip, survival T/C
Assay: NCI In Vivo Anticancer Drug Screen. Data for tumor model L1210 Leukemia (intraperitoneal) in CD2F1 (CDF1) mice
Conditions: higher = longer survival
Experimental: The antitumor activity of compounds was measured in mice bearing transplantable tumors. Survival or tumor size were measured and the results are expressed as the measurement made in the treated group (T) divided by the measurement made in the vehicle treated control group (C). The tumor model used in this assay is L1210 Leukemia (intraperitoneal) in CD2F1 (CDF1) mice

[1] = endpoint: mean survival time, dose: 12.5 mg/kg/injection, schedule: Q01DX009 (ip), vehicle: Klucel (hydroxypropylcellulose) (HPC)
[2] = endpoint: mean survival time, dose: 25.0 mg/kg/injection, schedule: Q01DX009 (ip), vehicle: Klucel (hydroxypropylcellulose) (HPC)
[3] = endpoint: mean survival time, dose: 25.0 mg/kg/injection, schedule: Q01DX009 (ip), vehicle: saline with Tween-80
[4] = endpoint: mean survival time, dose: 50.0 mg/kg/injection, schedule: Q01DX009 (ip), vehicle: saline with Tween-80
[5] = endpoint: mean survival time, dose: 100.0 mg/kg/injection, schedule: Q04DX003 (ip), vehicle: saline with Tween-80
[6] = endpoint: mean survival time, dose: 200.0 mg/kg/injection, schedule: Q04DX003 (ip), vehicle: saline with Tween-80
[7] = endpoint: mean survival time, dose: 400.0 mg/kg/injection, schedule: Q04DX003 (ip), vehicle: saline with Tween-80
[8] = endpoint: mean survival time, dose: 100.0 mg/kg/injection, schedule: Q01DX001 (ip), vehicle: saline with Tween-80
[9] = endpoint: mean survival time, dose: 200.0 mg/kg/injection, schedule: Q01DX001 (ip), vehicle: saline with Tween-80
[10] = endpoint: mean survival time, dose: 400.0 mg/kg/injection, schedule: Q01DX001 (ip), vehicle: saline with Tween-80
[11] = endpoint: mean survival time, dose: 100.0 mg/kg/injection, schedule: Q01DX009 (ip), vehicle: saline with Tween-80
[12] = endpoint: mean survival time, dose: 200.0 mg/kg/injection, schedule: Q01DX009 (ip), vehicle: saline with Tween-80
[13] = endpoint: mean survival time, dose: 400.0 mg/kg/injection, schedule: Q01DX009 (ip), vehicle: saline with Tween-80
[14] = endpoint: mean survival time, dose: 25.0 mg/kg/injection, schedule: Q04DX003 (ip), vehicle: saline with Tween-80
[15] = endpoint: mean survival time, dose: 50.0 mg/kg/injection, schedule: Q01DX009 (ip), vehicle: Klucel (hydroxypropylcellulose) (HPC)
[16] = endpoint: mean survival time, dose: 100.0 mg/kg/injection, schedule: Q01DX009 (ip), vehicle: Klucel (hydroxypropylcellulose) (HPC)

## O=c1[nH]cnc2n[nH]nc12
[1]
  T/C: 116 % of control
[2]
  T/C: 119 % of control
endpoint: mean survival time, dose: 75.0 mg/kg/injection, schedule: Q01DX001 (ip), vehicle: other
  T/C: 103 % of control
endpoint: mean survival time, dose: 150.0 mg/kg/injection, schedule: Q01DX001 (ip), vehicle: other
  T/C: 108 % of control
endpoint: mean survival time, dose: 300.0 mg/kg/injection, schedule: Q01DX001 (ip), vehicle: other
  T/C: 108 % of control

## O=S(=O)(N1CCCCC1)N1CCNCC1
endpoint: mean survival time, dose: 5.0 mg/kg/injection, schedule: Q01DX009 (ip), vehicle: saline with Tween-80
  T/C: 98 % of control
endpoint: mean survival time, dose: 5.0 mg/kg/injection, schedule: Q04DX003 (ip), vehicle: saline with Tween-80
  T/C: 103 % of control
endpoint: mean survival time, dose: 10.0 mg/kg/injection, schedule: Q01DX009 (ip), vehicle: saline with Tween-80
  T/C: 98 % of control
endpoint: mean survival time, dose: 10.0 mg/kg/injection, schedule: Q04DX003 (ip), vehicle: saline with Tween-80
  T/C: 103 % of control
endpoint: mean survival time, dose: 20.0 mg/kg/injection, schedule: Q01DX009 (ip), vehicle: saline with Tween-80
  T/C: 96 % of control
endpoint: mean survival time, dose: 20.0 mg/kg/injection, schedule: Q04DX003 (ip), vehicle: saline with Tween-80
  T/C: 97 % of control

## Cc1cc(C(C)(C)C)c(OC(=S)N(C)C)c(C(C)(C)C)c1
[3]
  T/C: 92 % of control
[4]
  T/C: 89 % of control

## COc1ccc(C(O)(c2ccccc2)C(C)O)cc1 (stereo not given)
[5]
  T/C: 101 % of control
[6]
  T/C: 98 % of control
[7]
  T/C: 98 % of control

## OC(C/C(=N\Nc1ccccc1)c1ccc(Br)cc1)(C(F)(F)F)C(F)(F)F
[8]
  T/C: 96 % of control
[9]
  T/C: 95 % of control
[10]
  T/C: 97 % of control

## COc1ccc2nc3cc(Cl)ccc3c(Nc3cccc(NC(C)=O)c3)c2n1
endpoint: mean survival time, dose: 25.0 mg/kg/injection, schedule: Q01DX009 (ip), vehicle: other
  T/C: 102 % of control
endpoint: mean survival time, dose: 50.0 mg/kg/injection, schedule: Q01DX009 (ip), vehicle: other
  T/C: 96 % of control
endpoint: mean survival time, dose: 100.0 mg/kg/injection, schedule: Q01DX009 (ip), vehicle: other
  T/C: 86 % of control

## O=C(NCCCl)NC1CCSc2ccccc21 (stereo not given)
[4]
  T/C: 95 % of control
[11]
  T/C: 91 % of control
[12]
  T/C: 91 % of control

## CCOC(=O)Cc1c(C)[nH]c2c(Br)cc(C)c(C)c12
endpoint: mean survival time, dose: 100.0 mg/kg/injection, schedule: Q01DX001 (ip), vehicle: other
  T/C: 98 % of control
endpoint: mean survival time, dose: 200.0 mg/kg/injection, schedule: Q01DX001 (ip), vehicle: other
  T/C: 89 % of control
endpoint: mean survival time, dose: 400.0 mg/kg/injection, schedule: Q01DX001 (ip), vehicle: other
  T/C: 110 % of control

## S=c1[nH]cc2cnccn12
endpoint: mean survival time, dose: 12.5 mg/kg/injection, schedule: Q01DX009 (ip), vehicle: saline with Tween-80
  T/C: 92 % of control and 103 % of control
[3]
  T/C: 97 % of control and 100 % of control
[4]
  T/C: 95 % of control and 105 % of control
[11]
  T/C: 93 % of control and 100 % of control
[12]
  T/C: 104 % of control
[13]
  T/C: 97 % of control

## O=C1CSC(=O)N1 (tested in a mixture with another compound)
endpoint: mean survival time, dose: 100.0 mg/kg/injection, schedule: Q01DX001 (ip), vehicle: saline
  T/C: 96 % of control
endpoint: mean survival time, dose: 200.0 mg/kg/injection, schedule: Q01DX001 (ip), vehicle: saline
  T/C: 96 % of control
endpoint: mean survival time, dose: 400.0 mg/kg/injection, schedule: Q01DX001 (ip), vehicle: saline
  T/C: 107 % of control

## CC(=O)OC1CCC2(C)C(CC=C3C2CCC2(C)C3CCC2C(C)CCCC(C)C)C1 (stereo not given)
[11]
  T/C: 89 % of control
[12]
  T/C: 89 % of control
[13]
  T/C: 91 % of control

## Fc1ccc(Nc2c3ccccc3nc3ccccc23)cc1
[11]
  T/C: 96 % of control

## CCCCNc1ccc2nnc(C)n2n1
endpoint: median survival time, dose: 50.0 mg/kg/injection, schedule: Q01DX005 (ip), vehicle: DMSO
  T/C: 100 % of control and 101 % of control
endpoint: median survival time, dose: 100.0 mg/kg/injection, schedule: Q01DX005 (ip), vehicle: DMSO
  T/C: 97 % of control and 100 % of control
endpoint: median survival time, dose: 200.0 mg/kg/injection, schedule: Q01DX005 (ip), vehicle: DMSO
  T/C: 104 % of control

## Cc1ccc(CCOS(=O)(=O)c2ccc(C)cc2)cc1
[8]
  T/C: 97 % of control
[9]
  T/C: 95 % of control
[10]
  T/C: 95 % of control

## CCC[CH2][Pb]([Cl])([CH2]CCC)[CH2]CCC
endpoint: mean survival time, dose: 1.5 mg/kg/injection, schedule: Q01DX009 (ip), vehicle: saline with Tween-80
  T/C: 96 % of control
endpoint: mean survival time, dose: 3.0 mg/kg/injection, schedule: Q01DX009 (ip), vehicle: saline with Tween-80
  T/C: 96 % of control
endpoint: mean survival time, dose: 6.0 mg/kg/injection, schedule: Q01DX009 (ip), vehicle: saline with Tween-80
  T/C: 93 % of control
endpoint: mean survival time, dose: 6.25 mg/kg/injection, schedule: Q04DX003 (ip), vehicle: saline with Tween-80
  T/C: 93 % of control
endpoint: mean survival time, dose: 12.5 mg/kg/injection, schedule: Q04DX003 (ip), vehicle: saline with Tween-80
  T/C: 87 % of control
[14]
  T/C: 93 % of control

## Cc1ccc2c(C)cc(=O)[nH]c2c1
[5]
  T/C: 95 % of control
[6]
  T/C: 95 % of control
[7]
  T/C: 101 % of control

## CC(=O)NC/C(C)=N/Nc1ccc([N+](=O)[O-])cc1[N+](=O)[O-]
[14]
  T/C: 93 % of control
endpoint: mean survival time, dose: 50.0 mg/kg/injection, schedule: Q04DX003 (ip), vehicle: saline with Tween-80
  T/C: 87 % of control
[5]
  T/C: 91 % of control

## Cc1ccc(C(=O)/C=C/c2ccc(N(C)C)cc2)cc1
[5]
  T/C: 87 % of control
[6]
  T/C: 87 % of control
[7]
  T/C: 89 % of control

## C1CCC2C[N-]CCC2C1.C1CCC2C[N-]CCC2C1.C1CCC2C[N-]CCC2C1.C1CCC2C[N-]CCC2C1.[Cl][Rh][Cl] (stereo not given)
endpoint: mean survival time, dose: 0.25 mg/kg/injection, schedule: Q01DX009 (ip), vehicle: saline
  T/C: 98 % of control
endpoint: mean survival time, dose: 0.5 mg/kg/injection, schedule: Q01DX009 (ip), vehicle: saline with Tween-80
  T/C: 92 % of control
endpoint: mean survival time, dose: 0.5 mg/kg/injection, schedule: Q01DX009 (ip), vehicle: saline
  T/C: 104 % of control
endpoint: mean survival time, dose: 1.0 mg/kg/injection, schedule: Q01DX009 (ip), vehicle: saline with Tween-80
  T/C: 96 % of control
endpoint: mean survival time, dose: 1.0 mg/kg/injection, schedule: Q01DX009 (ip), vehicle: saline
  T/C: 104 % of control
endpoint: mean survival time, dose: 2.0 mg/kg/injection, schedule: Q01DX009 (ip), vehicle: saline with Tween-80
  T/C: 96 % of control
endpoint: mean survival time, dose: 2.0 mg/kg/injection, schedule: Q01DX009 (ip), vehicle: saline
  T/C: 105 % of control
endpoint: mean survival time, dose: 4.0 mg/kg/injection, schedule: Q01DX009 (ip), vehicle: saline
  T/C: 113 % of control
endpoint: mean survival time, dose: 8.0 mg/kg/injection, schedule: Q01DX009 (ip), vehicle: saline
  T/C: 115 % of control

## COC1C(CO)OC(n2cnc3c(=S)nc(N)[nH]c32)C1O (stereo not given)
[1]
  T/C: 98 % of control and 101 % of control
[2]
  T/C: 101 % of control and 106 % of control
[15]
  T/C: 101 % of control and 106 % of control
[16]
  T/C: 123 % of control
endpoint: mean survival time, dose: 400.0 mg/kg/injection, schedule: Q01DX009 (ip), vehicle: Klucel (hydroxypropylcellulose) (HPC)
  T/C: 100 % of control

## O=[N+]([O-])c1ccc(N(CCO)CCO)c2c1no[n+]2[O-]
endpoint: median survival time, dose: 12.5 mg/kg/injection, schedule: Q01DX009 (ip), vehicle: saline with Tween-80
  T/C: 114 % of control
endpoint: median survival time, dose: 25.0 mg/kg/injection, schedule: Q01DX009 (ip), vehicle: saline with Tween-80
  T/C: 111 % of control
endpoint: median survival time, dose: 50.0 mg/kg/injection, schedule: Q01DX009 (ip), vehicle: saline with Tween-80
  T/C: 114 % of control

## Cc1ccc(S(=O)(=O)N(Cc2ccc(Cl)cc2)N2CCOC2=O)cc1
[15]
  T/C: 92 % of control
[16]
  T/C: 93 % of control
endpoint: mean survival time, dose: 200.0 mg/kg/injection, schedule: Q01DX009 (ip), vehicle: Klucel (hydroxypropylcellulose) (HPC)
  T/C: 98 % of control

## Nc1ccn([C@H]2C[C@@H](CO)[C@H](O)[C@@H]2O)c(=O)n1
endpoint: mean survival time, dose: 22.0 mg/kg/injection, schedule: Q03HX024 (ip), vehicle: saline
  T/C: 159 % of control
endpoint: mean survival time, dose: 33.0 mg/kg/injection, schedule: Q03HX024 (ip), vehicle: saline
  T/C: 164 % of control
endpoint: mean survival time, dose: 50.0 mg/kg/injection, schedule: Q03HX024 (ip), vehicle: saline
  T/C: 169 % of control
endpoint: mean survival time, dose: 75.0 mg/kg/injection, schedule: Q04HX024 (ip), vehicle: saline
  T/C: 176 % of control
endpoint: mean survival time, dose: 100.0 mg/kg/injection, schedule: Q04HX024 (ip), vehicle: saline
  T/C: 177 % of control
endpoint: mean survival time, dose: 150.0 mg/kg/injection, schedule: Q01DX009 (ip), vehicle: saline
  T/C: 150 % of control
endpoint: mean survival time, dose: 200.0 mg/kg/injection, schedule: Q01DX009 (ip), vehicle: saline
  T/C: 182 % of control
endpoint: mean survival time, dose: 450.0 mg/kg/injection, schedule: Q01DX009 (ip), vehicle: saline
  T/C: 166 % of control
